Broadly, the Ki is a measure of affinity in units of concentration, obtained from inhibition or displacement. A word on the IC50: it is the concentration at which inhibition is half-maximal.

Twelve compounds from US10202344B2, “Aryl substituted indoles and the use thereof” (Purdue Pharma L.P., priority 2010, dated 2019) can be followed below.

Bounds are passed on as bounds.

human Nav1.7, sequence (Q15858 other isoform, or with tags, fused parts or gaps): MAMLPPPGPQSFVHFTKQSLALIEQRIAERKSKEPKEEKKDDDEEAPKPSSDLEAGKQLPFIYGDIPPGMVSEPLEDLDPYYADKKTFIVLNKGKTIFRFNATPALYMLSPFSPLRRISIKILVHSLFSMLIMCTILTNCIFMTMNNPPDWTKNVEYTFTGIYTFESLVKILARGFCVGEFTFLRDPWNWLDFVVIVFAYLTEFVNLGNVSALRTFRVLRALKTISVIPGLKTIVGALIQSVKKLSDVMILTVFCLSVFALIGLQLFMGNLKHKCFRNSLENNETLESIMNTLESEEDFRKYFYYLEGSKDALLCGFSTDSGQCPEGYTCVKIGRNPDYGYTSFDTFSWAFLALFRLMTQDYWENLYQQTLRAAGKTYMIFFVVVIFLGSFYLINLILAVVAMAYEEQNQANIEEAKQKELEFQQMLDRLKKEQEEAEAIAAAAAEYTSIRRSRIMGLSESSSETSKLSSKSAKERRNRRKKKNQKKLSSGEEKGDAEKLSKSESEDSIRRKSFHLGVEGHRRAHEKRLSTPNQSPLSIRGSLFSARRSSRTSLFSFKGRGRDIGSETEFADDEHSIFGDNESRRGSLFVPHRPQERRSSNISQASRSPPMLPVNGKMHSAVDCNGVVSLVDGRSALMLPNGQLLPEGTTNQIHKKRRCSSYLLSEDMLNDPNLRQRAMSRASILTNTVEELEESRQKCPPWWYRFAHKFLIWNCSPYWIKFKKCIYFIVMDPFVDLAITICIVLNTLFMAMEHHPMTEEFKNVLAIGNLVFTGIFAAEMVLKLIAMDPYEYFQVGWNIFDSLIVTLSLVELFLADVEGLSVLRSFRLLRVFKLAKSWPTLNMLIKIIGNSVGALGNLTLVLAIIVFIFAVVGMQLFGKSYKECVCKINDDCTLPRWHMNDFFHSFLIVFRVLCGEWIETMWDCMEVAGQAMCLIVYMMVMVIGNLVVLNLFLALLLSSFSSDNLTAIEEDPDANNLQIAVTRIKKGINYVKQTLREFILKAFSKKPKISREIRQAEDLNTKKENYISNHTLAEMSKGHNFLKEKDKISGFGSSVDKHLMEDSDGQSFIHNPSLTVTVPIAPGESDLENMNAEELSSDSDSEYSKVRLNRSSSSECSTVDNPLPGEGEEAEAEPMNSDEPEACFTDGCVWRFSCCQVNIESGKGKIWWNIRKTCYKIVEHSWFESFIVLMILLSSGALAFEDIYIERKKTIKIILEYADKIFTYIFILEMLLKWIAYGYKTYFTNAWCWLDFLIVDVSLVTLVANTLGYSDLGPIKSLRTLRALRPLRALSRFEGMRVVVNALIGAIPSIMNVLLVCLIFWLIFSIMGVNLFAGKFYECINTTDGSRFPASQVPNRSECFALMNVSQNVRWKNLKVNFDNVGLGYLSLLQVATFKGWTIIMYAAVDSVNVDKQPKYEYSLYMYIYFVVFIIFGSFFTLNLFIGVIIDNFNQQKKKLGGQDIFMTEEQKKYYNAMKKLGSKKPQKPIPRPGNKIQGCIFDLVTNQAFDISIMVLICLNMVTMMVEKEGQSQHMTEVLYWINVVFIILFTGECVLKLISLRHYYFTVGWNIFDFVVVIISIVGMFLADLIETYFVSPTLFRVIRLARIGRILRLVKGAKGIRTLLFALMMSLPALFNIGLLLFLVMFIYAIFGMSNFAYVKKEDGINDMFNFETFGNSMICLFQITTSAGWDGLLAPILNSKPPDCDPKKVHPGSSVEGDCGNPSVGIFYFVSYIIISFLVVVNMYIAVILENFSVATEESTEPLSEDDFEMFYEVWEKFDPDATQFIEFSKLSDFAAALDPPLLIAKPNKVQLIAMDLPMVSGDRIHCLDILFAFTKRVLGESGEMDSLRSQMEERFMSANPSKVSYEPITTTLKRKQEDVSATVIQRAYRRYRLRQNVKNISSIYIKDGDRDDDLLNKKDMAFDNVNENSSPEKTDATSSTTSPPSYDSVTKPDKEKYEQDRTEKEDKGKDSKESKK

The target in one assay is hNav1.7 (Homo sapiens (Human), UniProt Q15858). In words: Electrophysiology (EP) assay, whole-cell patch clamp. The format is cell-based. The settings on record: hNav1.7 expressing HEK-293 cells, read-out: EP Nav1.7 Ki. The procedure: Cells: The hNav1.7 expressing HEK-293 cells were plated on 35 mm culture dishes pre-coated with poly-D-lysine in standard DMEM culture media (Mediatech, Inc., Herndon, Va.) and incubated in a 5% CO2 incubator at 37° C. Cultured cells were used approximately 12-48 hours after plating.
hNav1.7, sequence (Q15858 other isoform, or with tags, fused parts or gaps): as above
Electrophysiology: On the day of experimentation, the 35 mm dish was placed on the stage of an inverted microscope equipped with a perfusion system that continuously perfuses the culture dish with fresh recording media. A gravity driven superfusion system was used to apply test solutions directly to the cell under evaluation. This system consists of an array of glass pipette glass connected to a motorized horizontal translator. The outlet of the shooter was positioned approximately 100 μm from the cell of interest.
Gigaseals were formed and the whole-cell configuration was established in voltage clamp mode, and membrane currents generated by hNav1.7 were recorded in gap-free mode. […] Signals were sampled at 50 kHz and low pass filtered at 3 kHz.
The voltage clamp protocol to examine hNav1.7 currents was as follows. […] The amount of inhibition produced by the test compound was determined by comparing the current amplitude elicited by the test pulse in the absence and presence of the compound. […]
With `CN(C)CCc1cn(-c2ccc(Oc3ccccc3)cc2)c2ccc(C[C@H]3COC(=O)N3)cc12` [Compound 45, (S)-4-{[3-(2-(Dimethylamino)ethyl)-1-(4-phenoxyphenyl)-1H-indol-5-yl]methyl}oxazolidin-2-one], the inhibition constant Ki came out at 1310 nM. Same read-out and setting: under `N#Cc1cccc(Oc2ccc(-n3cc(C[C@H](N)CO)c4ccccc43)cc2)c1` [Compound 57, (S)-5-{4-[3-(2-Amino-3-hydroxypropyl)-1H-indol-1-yl]phenoxy}benzonitrile] stands 50 nM.

The next assay addresses human Nav1.7 (Homo sapiens (Human), UniProt Q15858). In words: FLIPR or FLIPR TETRA sodium dye assay with KCl and test article pre-incubation. The format is cell-based. The settings on record: read-out: FLIPR Nav1.7 IC50 (μM) ± SEM.
For the compound `N#Cc1cc(Oc2ccc(-n3cc(C(=O)C(N)=O)c4ccccc43)cc2)ccc1C(F)(F)F` [Compound 59, 2-(1-(4-(3-Cyano-4-(trifluoromethyl)phenoxy)phenyl)-1H-indol-3-yl)-2-oxoacetamide], the half-maximal inhibitory concentration (IC50) was determined as 3.54 ± 0.459 µM.

For the compound `O=C(NCCO)c1nn(-c2ccc(Oc3ccccc3)cc2)c2ccccc12` [Compound 144, N-(2-hydroxyethyl)-1-(4-phenoxyphenyl)-1H-indazole-3-carboxamide], the IC50 was determined as 0.16 ± 0.049 µM.

Staying with this assay, now noted: recombinant human Nav1.7 in HEK293 cells; sodium dye assay with KCl; read-out: FLIPR Nav1.7 IC50 (μM) ± SEM.
Regarding `CCOC(=O)C(Cc1c[nH]c2ccc(-c3ccc(Oc4ccccc4)cc3)cc12)[N+](=O)[O-]` (centres unmarked) [Compound 6, 2-Nitro-3-[5-(4-phenoxyphenyl)-1H-indol-3-yl]propionic acid ethyl ester], the IC50 is 5.14 ± 0.954 µM.

Take `NCCc1cn(-c2ccc(Oc3ccccc3)cc2)c2ccccc12` [Compound 43, 2-(1-(4-Phenoxyphenyl)-1H-indol-3-yl)ethanamine]: the IC50 came to 0.684 ± 0.041 µM. For `CN(C)CCc1cn(-c2ccc(Oc3ccccc3)cc2)c2ccc(C[C@H]3COC(=O)N3)cc12` [Compound 45, (S)-4-{[3-(2-(Dimethylamino)ethyl)-1-(4-phenoxyphenyl)-1H-indol-5-yl]methyl}oxazolidin-2-one], the IC50 amounted to 1.9 ± 0.636 µM. Regarding `N#Cc1cc(Oc2ccc(-n3cc(C[C@H]4COC(=O)N4)c4ccccc43)cc2)ccc1C(F)(F)F` [Compound 46, (S)-5-{4-[3-((2-Oxooxazolidin-4-yl)methyl)-1H-indol-1-yl]phenoxy}-2-(trifluoromethyl)benzonitrile], the half-maximal inhibitory concentration (IC50) stood at 0.715 ± 0.126 µM. On the same count and under the same terms, the result for `N#Cc1cccc(Oc2ccc(-n3cc(C[C@H](N)CO)c4ccccc43)cc2)c1` [Compound 57, (S)-5-{4-[3-(2-Amino-3-hydroxypropyl)-1H-indol-1-yl]phenoxy}benzonitrile] reads 0.383 ± 0.081 µM.

Take `N#Cc1cc(Oc2ccc(-n3cc(C(=O)C(=O)NC[C@H](O)CO)c4ccccc43)cc2)ccc1C(F)(F)F` [Compound 68, (S)-2-(1-(4-(3-cyano-4-(trifluoromethyl)phenoxy)-phenyl)-1H-indol-3-yl)-N-(2,3-dihydroxypropyl)-2-oxoacetamide]: the IC50 was found to be 0.572 ± 0.137 µM. Take `N#Cc1cc(Oc2ccc(-n3cc(C(=O)C(=O)O)c4cc([C@@H](O)CO)ccc43)cc2)ccc1C(F)(F)F` [Compound 98, (R)-2-(1-(4-(3-cyano-4-(trifluoromethyl)phenoxy)-phenyl)-5-(1,2-dihydroxyethyl)-1H-indol-3-yl)-2-oxoacetic acid]: the IC50 was over 20 µM.

Take `NC(=O)c1nn(-c2ccc(Oc3ccc(C(F)(F)F)cc3)cc2)c2ccc(F)cc12` [Compound 150, 5-fluoro-1-(4-(4-(trifluoromethyl)phenoxy)phenyl)-1H-indazole-3-carboxamide]: the 50% inhibitory concentration (IC50) is 6.97 ± 0.934 µM. As for `N#Cc1cc(Oc2ccc(-n3nc(C(N)=O)c4ccccc43)cc2)ccc1C(F)(F)F` [Compound 152, 1-(4-(3-cyano-4-(trifluoromethyl)phenoxy)-phenyl)-1H-indazole-3-carboxamide], the half-inhibitory concentration (IC50) turned out to be 0.602 ± 0.053 µM. In the case of “(S)-3-(1-(4-(4-fluorophenoxy)phenyl)-1H-pyrrolo[2,3-c]pyridin-3-yl)propane-1,2-diol [Compound 170]”, the IC50 amounted to 1.38 ± 0.542 µM.
